{"source": "ChEMBL document CHEMBL5380777", "about": "“Efficacy, Mechanism, and Structure-Activity Relationship of 6-Methoxy Benzofuran Derivatives as a Useful Tool for Senile Osteoporosis” (J Med Chem, 2023)", "key": {"Mus musculus [1]": {"system": "Mus musculus", "test": "Anti osteoporosis in 2.5 months old SAMP-6 rapid aging mouse model assessed as increase in number of osteoblast per square millimeter of the trabecular bone surface administered at 30 mg/kg/day, IG continuously for 3 months […]", "type": "functional, organism-based"}, "Osteoblast [2]": {"system": "Osteoblast", "test": "Upregulation of transcription factor […] expression in 16 months old C57 mouse osteoblast by scRNA-seq analysis", "type": "functional, cell-based"}, "[3]": {"test": "Toxicity in 16 months old C57 mouse assessed as change in serum AST level administered at 30 mg/kg/day, IG continuously for 4 months", "type": "organism-based", "settings": "in vivo, po, 2920 h"}, "Mus musculus [4]": {"system": "Mus musculus", "test": "Anti osteoporosis in 16 months old C57 mouse assessed as granulocyte level in femur administered at 30 mg/kg/day, IG continuously for 4 months by scRNA-seq analysis (reference value: 28.33%)", "type": "functional", "settings": "2920 h"}, "Mus musculus [5]": {"system": "Mus musculus", "test": "Anti osteoporosis in 16 months old C57 mouse assessed as GrP level in femur administered at 30 mg/kg/day, IG continuously for 4 months by scRNA-seq analysis (reference value: 12.75%)", "type": "functional", "settings": "2920 h"}, "Mus musculus [6]": {"system": "Mus musculus", "test": "Anti osteoporosis in 2.5 months old SAMP-6 rapid aging mouse model assessed as increase in osteoblast formation administered at 30 mg/kg/day, IG continuously for 3 months", "type": "functional, organism-based"}, "[7]": {"test": "Toxicity in 16 months old C57 mouse assessed as change in total protein level administered at 30 mg/kg/day, IG continuously for 4 months", "type": "organism-based", "settings": "in vivo, po, 2920 h"}, "[8]": {"test": "Toxicity in 2.5 months old SAMP-6 rapid aging mouse model assessed as change in ALP level administered at 30 mg/kg/day, IG continuously for 3 months in presence of ALN", "type": "organism-based", "settings": "in vivo, po, 2190 h"}, "Mus musculus [9]": {"system": "Mus musculus", "test": "Anti osteoporosis in 16 months old C57 mouse assessed as macrophage level in femur administered at 30 mg/kg/day, IG continuously for 4 months by scRNA-seq analysis (reference value: 1.88%)", "type": "functional", "settings": "2920 h"}, "Mus musculus [10]": {"system": "Mus musculus", "test": "Anti osteoporosis in 16 months old C57 mouse assessed as chondroblast level in femur administered at 30 mg/kg/day, IG continuously for 4 months by scRNA-seq analysis (reference value: 2.49%)", "type": "functional", "settings": "2920 h"}, "Osteoclast": {"system": "Osteoclast", "test": "Upregulation of BMP-2 expression in 16 months old C57 mouse osteoclast by scRNA-seq analysis", "type": "functional, cell-based"}, "[11]": {"test": "Toxicity in 2.5 months old SAMP-6 rapid aging mouse model assessed as change in creatinine level administered at 30 mg/kg/day, IG continuously for 3 months", "type": "organism-based", "settings": "in vivo, po, 2190 h"}, "[12]": {"test": "Toxicity in 2.5 months old SAMP-6 rapid aging mouse model assessed as change in serum AST level administered at 30 mg/kg/day, IG continuously for 3 months", "type": "organism-based", "settings": "in vivo, po, 2190 h"}, "Osteoblast [13]": {"system": "Osteoblast", "test": "Regulation of osteogenesis in 16 months old C57 mouse osteoblast endoplasmic reticulum assessed as increase in Hsp90aa1 gene by scRNA-seq analysis", "type": "functional, cell-based"}, "Osteoblast [14]": {"system": "Osteoblast", "test": "Upregulation of transcription factor MKRN1 expression in 16 months old C57 mouse osteoblast by scRNA-seq analysis", "type": "functional, cell-based"}, "Mus musculus [15]": {"system": "Mus musculus", "test": "Anti osteoporosis in 16 months old C57 mouse assessed as osteoclast level in femur administered at 30 mg/kg/day, IG continuously for 4 months by scRNA-seq analysis (reference value: 6.52%)", "type": "functional", "settings": "2920 h"}, "Mus musculus [16]": {"system": "Mus musculus", "test": "Anti osteoporosis in 16 months old C57 mouse assessed as myeloid progenitor level in femur administered at 30 mg/kg/day, IG continuously for 4 months by scRNA-seq analysis (reference value: 2.18%)", "type": "functional", "settings": "2920 h"}, "[17]": {"test": "Toxicity in 16 months old C57 mouse assessed as change in creatinine level administered at 30 mg/kg/day, IG continuously for 4 months", "type": "organism-based", "settings": "in vivo, po, 2920 h"}, "Mus musculus [18]": {"system": "Mus musculus", "test": "Anti osteoporosis in 2.5 months old SAMP-6 rapid aging mouse model assessed as bone mass maintenance administered at 30 mg/kg/day, IG continuously for 3 months", "type": "functional, organism-based"}, "[19]": {"test": "Toxicity in 2.5 months old SAMP-6 rapid aging mouse model assessed as change in body weight administered at 30 mg/kg/day, IG in presence of ALN continuously for 3 months", "type": "organism-based", "settings": "in vivo, po, 2190 h"}, "Osteoblast [20]": {"system": "Osteoblast", "test": "Upregulation of transcription factor TAX1BP1 expression in 16 months old C57 mouse osteoblast by scRNA-seq analysis", "type": "functional, cell-based"}, "Osteoblast [21]": {"system": "Osteoblast", "test": "Upregulation of transcription factor H1F0 expression in 16 months old C57 mouse osteoblast by scRNA-seq analysis", "type": "functional, cell-based"}, "[22]": {"test": "Toxicity in 16 months old C57 mouse assessed as change in serum ALT level administered at 30 mg/kg/day, IG continuously for 4 months", "type": "organism-based", "settings": "in vivo, po, 2920 h"}, "Osteoblast [23]": {"system": "Osteoblast", "test": "Regulation of osteogenesis in 16 months old C57 mouse osteoblast endoplasmic reticulum assessed as increase in Hsph1 gene by scRNA-seq analysis", "type": "functional, cell-based"}, "[24]": {"test": "Toxicity in 2.5 months old SAMP-6 rapid aging mouse model assessed as change in body weight administered at 30 mg/kg/day, IG continuously for 3 months", "type": "organism-based", "settings": "in vivo, po, 2190 h"}, "[25]": {"test": "Toxicity in 2.5 months old SAMP-6 rapid aging mouse model assessed as change in urea level administered at 30 mg/kg/day, IG continuously for 3 months", "type": "organism-based", "settings": "in vivo, po, 2190 h"}, "Mus musculus [26]": {"system": "Mus musculus", "test": "Anti osteoporosis in 16 months old C57 mouse assessed as proliferating granulocyte level in femur administered at 30 mg/kg/day, IG continuously for 4 months by scRNA-seq analysis (reference value: 6.29%)", "type": "functional", "settings": "2920 h"}, "Mus musculus [27]": {"system": "Mus musculus", "test": "Anti osteoporosis in 2.5 months old SAMP-6 rapid aging mouse model assessed as increase in bone mass administered at 30 mg/kg/day, IG continuously for 3 months in presence of ALN by micro CT analysis", "type": "functional, organism-based"}, "Mus musculus [28]": {"system": "Mus musculus", "test": "Anti osteoporosis in 16 months old C57 mouse assessed as megakaryocyte level in femur administered at 30 mg/kg/day, IG continuously for 4 months by scRNA-seq analysis (reference value: 1%)", "type": "functional", "settings": "2920 h"}, "MC3T3-E1": {"system": "MC3T3-E1", "test": "Induction of ALP activity in mouse MC3T3-E1 cells in osteogenic differentiation culture at 1 uM measured on day 7", "type": "functional, cell-based", "settings": "time 7.0 day"}, "[29]": {"test": "Toxicity in 16 months old C57 mouse assessed as change in blood glucose level administered at 30 mg/kg/day, IG continuously for 4 months", "type": "organism-based", "settings": "in vivo, po, 2920 h"}, "[30]": {"test": "Toxicity in 2.5 months old SAMP-6 rapid aging mouse model assessed as change in creatinine level administered at 30 mg/kg/day, IG continuously for 3 months in presence of ALN", "type": "organism-based", "settings": "in vivo, po, 2190 h"}, "[31]": {"test": "Toxicity in 2.5 months old SAMP-6 rapid aging mouse model assessed as change in serum ALT level administered at 30 mg/kg/day, IG continuously for 3 months in presence of ALN", "type": "organism-based", "settings": "in vivo, po, 2190 h"}, "Mus musculus [32]": {"system": "Mus musculus", "test": "Anti osteoporosis in 16 months old C57 mouse assessed as increase in bone mass administered at 30 mg/kg/day, IG continuously for 2 months by micro CT analysis relative to aged control group", "type": "functional, organism-based"}, "[33]": {"test": "Toxicity in 16 months old C57 mouse assessed as change in urea level administered at 30 mg/kg/day, IG continuously for 4 months", "type": "organism-based", "settings": "in vivo, po, 2920 h"}, "Osteoblast [34]": {"system": "Osteoblast", "test": "Regulation of osteogenesis in 16 months old C57 mouse osteoblast endoplasmic reticulum assessed as increase in Hsp90ab1 gene by scRNA-seq analysis", "type": "functional, cell-based"}, "Osteoblast [35]": {"system": "Osteoblast", "test": "Regulation of osteogenesis in 16 months old C57 mouse osteoblast endoplasmic reticulum assessed as increase in Atf4 gene by scRNA-seq analysis", "type": "functional, cell-based"}}, "note": "Active and inactive are the calls of the source. The calls are words filed in the database; no cut-off is given here.", "data": [{"smiles": "COc1ccc2cc(C(=O)NCCN(C)C)oc2c1.CS(=O)(=O)O", "values": [{"measurement": "Activity", "setting": "Mus musculus [1]", "result": "Active"}, {"measurement": "Activity", "setting": "Osteoblast [2]", "result": "Active"}, {"measurement": "Activity", "setting": "[3]", "result": "Non-Toxic"}, {"measurement": "Activity", "setting": "Mus musculus [4]", "result": 34.01, "unit": "%"}, {"measurement": "Activity", "setting": "Mus musculus [5]", "result": 6.51, "unit": "%"}, {"measurement": "Activity", "setting": "Mus musculus [6]", "result": "Active"}, {"measurement": "Activity", "setting": "[7]", "result": "Non-Toxic"}, {"measurement": "Activity", "setting": "[8]", "result": "Non-Toxic"}, {"measurement": "Activity", "setting": "Mus musculus [9]", "result": 1.33, "unit": "%"}, {"measurement": "Activity", "setting": "Mus musculus [10]", "result": 3.77, "unit": "%"}, {"measurement": "Activity", "setting": "Osteoclast", "result": "Active"}, {"measurement": "Activity", "setting": "[11]", "result": "Non-Toxic"}, {"measurement": "Activity", "setting": "[12]", "result": "Non-Toxic"}, {"measurement": "Activity", "setting": "Osteoblast [13]", "result": "Active"}, {"measurement": "Activity", "setting": "Osteoblast [14]", "result": "Active"}, {"measurement": "Activity", "setting": "Mus musculus [15]", "result": 12.12, "unit": "%"}, {"measurement": "Activity", "setting": "Mus musculus [16]", "result": 0.32, "unit": "%"}, {"measurement": "Activity", "setting": "[17]", "result": "Non-Toxic"}, {"measurement": "Activity", "setting": "Mus musculus [18]", "result": "Active"}, {"measurement": "Activity", "setting": "[19]", "result": "Non-Toxic"}, {"measurement": "Activity", "setting": "Osteoblast [20]", "result": "Active"}, {"measurement": "Activity", "setting": "Osteoblast [21]", "result": "Active"}, {"measurement": "Activity", "setting": "[22]", "result": "Non-Toxic"}, {"measurement": "Activity", "setting": "Osteoblast [23]", "result": "Active"}, {"measurement": "Activity", "setting": "[24]", "result": "Non-Toxic"}, {"measurement": "Activity", "setting": "[25]", "result": "Non-Toxic"}, {"measurement": "Activity", "setting": "Mus musculus [26]", "result": 4.71, "unit": "%"}, {"measurement": "Activity", "setting": "Mus musculus [27]", "result": "Active"}, {"measurement": "Activity", "setting": "Mus musculus [28]", "result": 0.78, "unit": "%"}, {"measurement": "Activity", "setting": "MC3T3-E1", "result": "Active"}, {"measurement": "Activity", "setting": "[29]", "result": "Non-Toxic"}, {"measurement": "Activity", "setting": "[30]", "result": "Non-Toxic"}, {"measurement": "Activity", "setting": "[31]", "result": "Non-Toxic"}, {"measurement": "Activity", "setting": "Mus musculus [32]", "result": "inactive"}, {"measurement": "Activity", "setting": "[33]", "result": "Non-Toxic"}, {"measurement": "Activity", "setting": "Osteoblast [34]", "result": "Active"}, {"measurement": "Activity", "setting": "Osteoblast [35]", "result": "Active"}]}]}
